This note sets out measurements from patent publication US20100317685A1, “N-PHENYL-IMIDAZO[1,2-a]PYRIDINE-2-CARBOXAMIDE DERIVATIVES, THEIR PREPARATION AND THEIR THERAPEUTIC APPLICATION” (SANOFI-AVENTIS, priority 2008, published 2010).

A word on the EC50: it is the concentration needed to bring the measured effect to its halfway point.

For this test, the target named is T1, mouse Nurr1 receptor (Mus musculus, UniProt Q06219).
T1 construct: a cell line (N2A) endogenously expressing the mouse Nurr1 receptor; host or cells: Neuro-2A (N2A) mouse neuroblastoma cells stably transfected with 8NBRE-luciferase
T1 sequence (Q06219 whole entry): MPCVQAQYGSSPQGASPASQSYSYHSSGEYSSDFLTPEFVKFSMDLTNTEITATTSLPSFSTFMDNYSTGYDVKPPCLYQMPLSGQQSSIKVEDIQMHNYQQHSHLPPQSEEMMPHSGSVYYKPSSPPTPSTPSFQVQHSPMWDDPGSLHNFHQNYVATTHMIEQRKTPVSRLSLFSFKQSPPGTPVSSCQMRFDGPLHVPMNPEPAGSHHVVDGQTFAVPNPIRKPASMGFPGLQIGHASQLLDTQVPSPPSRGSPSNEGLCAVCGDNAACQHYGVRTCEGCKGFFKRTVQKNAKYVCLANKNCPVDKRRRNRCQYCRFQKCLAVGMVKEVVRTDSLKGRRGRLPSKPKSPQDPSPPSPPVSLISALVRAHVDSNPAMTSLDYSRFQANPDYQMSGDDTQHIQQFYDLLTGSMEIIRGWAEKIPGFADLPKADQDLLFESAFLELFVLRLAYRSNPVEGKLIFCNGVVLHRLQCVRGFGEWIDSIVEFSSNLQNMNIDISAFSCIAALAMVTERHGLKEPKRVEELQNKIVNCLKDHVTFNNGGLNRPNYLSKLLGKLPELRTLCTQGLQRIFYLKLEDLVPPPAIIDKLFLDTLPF
As to the kind of experiment: In vitro activity on N2A cells (NBRE-luciferase reporter). The class given is cell-based. The settings on record: N2A-8NBRE cells, 24 hours incubation. The procedure: Evaluation of the In Vitro Activity on N2A Cells
The activity of the compounds according to the invention was evaluated on a cell line (N2A) endogenously expressing the mouse Nurr1 receptor and stably transfected with the NOT binding response element (NBRE) coupled to the luciferase reporter gene. The EC50 values are between 0.01 and 1000 nM. The assays were carried out according to the procedure described below.
The Neuro-2A cell line comes from a standard commercial source (ATCC). The Neuro-2A clone was obtained, from a spontaneous tumour originating from an A albino mouse strain, by R. J Klebe et al. This Neuro-2A line is subsequently stably transfected with 8NBRE-luciferase. The N2A-8NBRE cells are cultured until confluence in 75 cm^2 culture flasks containing DMEM supplemented with 10% of foetal calf serum, 4.5 g/l of glucose and 0.4 mg/ml of geneticin. After a week of culture, the cells are recovered with 0.25% trypsin for 30 seconds and then resuspended in DMEM without phenol red, containing 4.5 g/l of glucose and 10% of Hyclone delipidized serum, and deposited into transparent-bottom 96-well white plates. The cells are deposited at a rate of 60 000 per well in 75 μl for 24 hours before the addition of the products. […] The plates are subsequently measured in a luminescence counter for microplates after having been sealed with an adhesive film. […]
On the technique in general: A reporter such as luciferase makes a cellular process visible.

As to `N#Cc1cccc(NC(=O)c2cn3cc(-c4cccc(CO)c4)ccc3n2)c1` [Compound 5, N-(3-cyanophenyl)-6-[3-(hydroxymethyl)phenyl]imidazo[1,2-a]pyridine-2-carboxamide], the EC50 turned out to be 27 nM.

Consider `N#Cc1c(F)cccc1NC(=O)c1cn2cc(-c3cccc(CO)c3)ccc2n1` [Compound 8, N-(2-cyano-3-fluorophenyl)-6-[3-(hydroxymethyl)phenyl]imidazo[1,2-a]pyridine-2-carboxamide], for which the EC50 turned out to be 0.4 nM.
